Data as given in US6878702B2, “Anti-inflammatory agents” (Orion Corporation, priority 2000, dated 2005).

How the values were obtained:
[1] = system: carrageenan-induced rat paw edema; test: Carrageenan-induced paw edema in rats; type: in vivo; conditions: 3 h, male Wistar rats
Description: The acute inflammation was induced to the male Wistar rats by an injection of 0.1 ml of 1 or 2% lambda-carrageenan solution into the subplantar tissue of the right hind paw (=1 or 2 mg/paw). Three hours after the carrageenan injection the rats were killed. Both hind paws were cut off just above the heel and weighed. The test compounds (levosimendan and dextrosimendan) were administered orally 30 minutes before the induction of inflammation using dosing levels:
Control rats were included in each experiment. The difference between the weight of the right and the left hind paw was regarded as swelling. 9-10 animals were included in each group.

[2] = system: mitochondrial KATP channel; test: Mitochondrial ATP dependent potassium channel opening: membrane potential (ΔΨ) of isolated liver mitochondria, rhodamine 123; type: biochemical, rat; conditions: for ΔΨ of rat liver mitochondria in the choline chloride medium / ΔΨ of rat liver mitochondria in KCl medium: <2.58 μM concentration; for ΔΨ of rat liver mitochondria in KCl medium: respiring only on endogenous substrates, KCl medium with 400 μM ATP and 1 mg oligomycin/mg protein, FIG. 2; for effect on ΔΨ in presence of 5-hydroxydecanoate (5-HD), selective blocker of mitochondrial KATP channel: with 5-HD, data not shown
From the text: In respiring mitochondria, the decrease in ΔΨ due to the KATP channel opening is compensated by an increased respiration rate. When mitochondria respires only on endogenous substrates, and phosphorylation is blocked by oligomycin, the respiration rate is sufficient to generate a high ΔΨ. However, opening of KATP channels leads to a decrease in ΔΨ, which could not be compensated by increased respiration rate. In such a model, opening of KATP channel is unmasked, and can be recorded. This model was applied to test if opening could be induced by dextrosimendan and levosimendan.
Mitochondria were isolated from rat livers by differential centrifugation in medium containing 210 mM mannitol, 70 mM sucrose, 10 mM Hepes, 1 mM EGTA and 5 mg/ml bovine serum albumin, pH 7.4. The mitochondrial protein concentration was determined by modified Biuret method. Oxygen consumption of isolated liver mitochondria was recorded at 25° C. by means of the Clark-type electrode system in the KCl medium (100 mM KCl, 2 mM KH2PO4, 10 mM HEPES, 1 mM MgCl2, pH 7.4 with TRIZMA base) or choline chloride medium (100 mM choline chloride, 2 mM NaH2PO4, 10 mM HEPES, 1 mM MgCl2, pH 7.4 with TRIZMA base). The final mitochondrial protein concentration used in experiments was 1 mg protein/ml. For studies of respiring mitochondria, 5 mM succinate in the presence of 5 μM rotenone was used as substrate.
Membrane potential (ΔΨ) of liver mitochondria was measured with rhodamine 123 as a fluorescent probe using the excitation at 503 nm and emission at 527 nm at room temperature with the Hitachi F4000 fluorometer. The difference in fluorescense between mitochondria with addition of FCCP (0.4 μM) and without it was taken as 100%, and decrease in membrane potential by the tested compounds was expressed in % of FCCP effect.

CC1CC(=O)NN=C1c1ccc(NN=C(C#N)C#N)cc1 (single isomer, unassigned; (+)) [Dextrosimendan]
carrageenan-induced rat paw edema (swelling, weight difference of hind paws) ([1]; carrageenan 2 mg/paw, 10, 30 and 100 mg/kg orally 30 min before, FIG. 3b): inhibited the carrageenan-induced rat paw edema significantly | ΔΨ of rat liver mitochondria in the choline chloride medium [2]: did not significantly change | ΔΨ of rat liver mitochondria in KCl medium [2]: decreased | effect on ΔΨ in presence of 5-hydroxydecanoate (5-HD), selective blocker of mitochondrial KATP channel [2]: abolished

CC1SC(=O)NN=C1c1ccc(NN=C(C#N)C#N)cc1 (single isomer, unassigned; (+)) [compound B, (+)-[[4-(3,6-dihydro-6-methyl-2-oxo-2H-1,3,4-thiadiazin-5-yl)phenyl]hydrazono]propanedinitrile]
melting point: 125 to 128 °C

C[C@@H]1CC(=O)NN=C1c1ccc(NN=C(C#N)C#N)cc1 [levosimendan, reference compound]
carrageenan-induced rat paw edema (swelling, weight difference of hind paws) ([1]; carrageenan 1 mg/paw, 0.1, 1 and 10 mg/kg orally 30 min before, FIG. 3a): inhibited the carrageenan-induced rat paw edema significantly | ΔΨ of rat liver mitochondria in the choline chloride medium [2]: did not significantly change | ΔΨ of rat liver mitochondria in KCl medium [2]: decreased | effect on ΔΨ in presence of 5-hydroxydecanoate (5-HD), selective blocker of mitochondrial KATP channel [2]: abolished
